From patent publication US20210290648A1, “Potentiation of B-Lactam Antibiotics and B-Lactam/B-Lactamase Inhibitor Combinations Against Multidrug and Extensively Drug-Resistant Pseudomonas Aeruginosa Using Non-Ribosomal Tobramycin-Cyclam Conjugates” (University of Manitoba, priority 2018, published 2021)
Converted amounts (≈) assume the structure as drawn.

Legend:
[1] = system: human liver carcinoma (HepG2) cells; experiment: Cytotoxicity, PrestoBlue cell viability assay; format: cell-based; settings: at about 12 μM (6.5 μg/mL), positive control
Experimental: Cytotoxicity Assay. Human embryonic kidney cells (HEK293) and HepG2 cells were grown in Dulbecco's modified eagle's medium supplemented with 10% fetal bovine serum in a humidified […] incubator at 37° C. Equal number of cells (100 μl of media containing ˜8000 cells) were dispersed into 96-well plates and wells with medium but no cells were used as blanks. After incubating for 24 h, […] varying concentrations of test compounds (at twice the desired concentrations) were added to each well, including the blanks. The treated cells were then incubated further for 48 h, after which PrestoBlue reagent was added to each well. The plates were then incubated for an additional hour on a nutator mixer in a 5% CO2 incubator. The fluorescence was read at […] on a SpectraMax M2 plate reader (Molecular Devices, USA). Cell viability were interpreted as previously described (55, 77). The values of blank were subtracted from each value, and the viability values of the treated samples relative to the controls with vehicle were calculated. The values for the plots are the means±standard deviation.

[2] = system: human embryo kidney (HEK293) cells; experiment: Cytotoxicity, PrestoBlue cell viability assay; format: cell-based; settings: at about 12 μM (6.5 μg/mL), positive control
Experimental: Cytotoxicity Assay. Human embryonic kidney cells (HEK293) and HepG2 cells were grown in Dulbecco's modified eagle's medium supplemented with 10% fetal bovine serum in a humidified 5% atmospheric incubator at 37° C. […] The fluorescence was read at […] on a SpectraMax M2 plate reader (Molecular Devices, USA). […] The values of blank were subtracted from each value, and the viability values of the treated samples relative to the controls with vehicle were calculated. The values for the plots are the means±standard deviation.

WT P. aeruginosa PAO1 = experiment: Checkerboard combination study / MIC; format: cell-based, Pseudomonas aeruginosa; settings: for FICI in the presence of ≤10 μM of 1: antibiotic + compound 1; for FICI in the presence of ≤10 μM of 1 / MIC of Antibiotics in the presence of ≤10 μM of 1 / FICI in the presence of ≤10 μM of 2 / MIC of Antibiotics in the presence of ≤10 μM of 2 / FICI in the presence of ≤10 μM of 3 / MIC of Antibiotics in the presence of ≤10 μM of 3 / FICI with compounds 1-3: WT PAO1; for MIC of Antibiotics in the presence of ≤10 μM of 1: antibiotic + compound 1 ≤10 μM; for FICI in the presence of ≤10 μM of 2: antibiotic + compound 2; for MIC of Antibiotics in the presence of ≤10 μM of 2: antibiotic + compound 2 ≤10 μM; for FICI in the presence of ≤10 μM of 3: antibiotic + compound 3; for MIC of Antibiotics in the presence of ≤10 μM of 3: antibiotic + compound 3 ≤10 μM; for FICI with compounds 1-3: antibiotic + compounds 1-3 at ≤10 μM (≤16 μg/mL)
[3] = system: A. baumannii CAN-ICU 63169; experiment: MIC, microbroth dilution; format: cell-based; settings: Acinetobacter baumannii, CANICU63169, standalone, read-out: MIC
Experimental: (§1) Antimicrobial Susceptibility Assay. The in vitro antimicrobial activity of all compounds/antibiotics against a panel of bacteria was evaluated by microbroth dilution method in accordance with the Clinical and Laboratory Standards Institute (CLSI) guidelines. Overnight grown bacterial cultures were diluted in saline to achieve a 0.5 McFarland turbidity, followed by 1:50 dilution in Mueller-Hinton broth (MHB) for inoculation to a final concentration of approximately 5×10^5CFU/mL. The antimicrobial agents were 2-fold serially diluted in MHB in a 96-well plate and incubated at 37° C. with equal volumes of inoculum for 18 h. The lowest concentration that prevented the visible growth of bacteria was defined as the MIC for each antimicrobial agent. The broth with or without bacterial cells was used as positive or negative control, respectively.

E. faecium ATCC 27270 = experiment: MIC, microbroth dilution; format: cell-based; settings: Enterococcus faecium, ATCC27270, standalone, read-out: MIC
Experimental: as §1

[4] = system: E. coli CAN-ICU 61714 (GEN-R); experiment: MIC, microbroth dilution; format: cell-based; settings: Escherichia coli, standalone, read-out: MIC
Experimental: as §1

S. aureus ATCC 29213 = experiment: MIC, microbroth dilution; format: cell-based; settings: Staphylococcus aureus, ATCC29213, standalone, read-out: MIC
Experimental: as §1

E. faecalis ATCC 29212 = experiment: MIC, microbroth dilution; format: cell-based; settings: Enterococcus faecalis, ATCC29212, standalone, read-out: MIC
Experimental: as §1

[5] = system: S. maltophilia CAN-ICU 62584; experiment: MIC, microbroth dilution; format: cell-based; settings: Stenotrophomonas maltophilia, CANICU62584, standalone, read-out: MIC
Experimental: as §1

S. pneumoniae ATCC 49619 = experiment: MIC, microbroth dilution; format: cell-based; settings: Streptococcus pneumoniae, ATCC49619, standalone, read-out: MIC
Experimental: as §1

MSSE CANWARD-2008 81388 = experiment: MIC, microbroth dilution; format: cell-based; settings: standalone, read-out: MIC
Experimental: as §1

MRSA ATCC 33592 = experiment: MIC, microbroth dilution; format: cell-based; settings: Staphylococcus aureus, standalone, read-out: MIC
Experimental: as §1

E. coli ATCC 25922 = experiment: MIC, microbroth dilution; format: cell-based; settings: Escherichia coli, ATCC25922, standalone, read-out: MIC
Experimental: as §1

[6] = system: MRSE CAN-ICU 61589 (CAZ >32); experiment: MIC, microbroth dilution; format: cell-based; settings: Staphylococcus epidermidis, standalone, read-out: MIC
Experimental: as §1

[7] = system: E. coli CANWARD-2011 97615 (GEN-R, TOB-R, CIP-R) aac(3′)iia; experiment: MIC, microbroth dilution; format: cell-based; settings: Escherichia coli
Experimental: as §1

[8] = system: E. coli CAN-ICU 63074 (AMK 32); experiment: MIC, microbroth dilution; format: cell-based; settings: Escherichia coli, standalone, read-out: MIC
Experimental: as §1

[9] = system: P. aeruginosa CAN-ICU 62308 (GEN-R); experiment: MIC, microbroth dilution; format: cell-based, Pseudomonas aeruginosa; settings: Pseudomonas aeruginosa, standalone, read-out: MIC
Experimental: as §1

P. aeruginosa ATCC 27853 = experiment: MIC, microbroth dilution; format: cell-based, Pseudomonas aeruginosa; settings: Pseudomonas aeruginosa, ATCC27853, standalone, read-out: MIC
Experimental: as §1

[10] = system: P. aeruginosa CANWARD-2011 96846 (GEN-R, TOB-R); experiment: MIC, microbroth dilution; format: cell-based, Pseudomonas aeruginosa; settings: Pseudomonas aeruginosa, standalone, read-out: MIC
Experimental: as §1

K. pneumoniae ATCC 13883 = experiment: MIC, microbroth dilution; format: cell-based, Klebsiella pneumoniae; settings: Klebsiella pneumoniae, ATCC13883, standalone, read-out: MIC
Experimental: as §1

[11] = system: MDR/XDR P. aeruginosa clinical isolates; experiment: MIC and checkerboard, panel of clinical isolates; format: cell-based, Pseudomonas aeruginosa
[12] = system: panel of Gram-positive and Gram-negative bacteria; experiment: MIC, panel of Gram-positive and Gram-negative bacteria; format: cell-based; settings: standalone; susceptible strains of the panel; read-out: MIC values against susceptible strains
Experimental: as §1

PA 101243 = experiment: Checkerboard combination study / MIC; format: cell-based, Pseudomonas aeruginosa; settings: PA101243
[13] = system: Galleria mellonella larvae; experiment: Galleria mellonella tolerability study; settings: 100 mg/kg; positive control
Experimental: In vitro and in vivo discordances have been observed in antimicrobial chemotherapy, thus, therapeutic efficacy may not necessarily be reliably extrapolated based on in vitro data alone. […] Colistin (100 mg/kg), an antibiotic well known for its toxicity towards eukaryotes, served as a positive control for this experiment while PBS served as negative control. […] Survivability was scored for a total of 4 days.
In vivo larvae-infection model. In vivo synergistic effects were determined using Galleria mellonella infection model, as previously described (20). Briefly, worms were purchased from The Worm Lady® Live Feeder (ON, Canada), stored in their natural habitat at 16° C., and used within 10 days of delivery. The worms (average weight of 250 mg) were used for tolerability and efficacy studies. Tolerability study was performed by injecting 10 μL of antimicrobial agents only at concentrations equivalent to 100 mg/kg or 200 mg/kg. The worms (ten in each group) were incubated at 37° C. and monitored for 96 h. […] Overnight grown culture of respective MDR P. aeruginosa isolate was standardized to 0.5 McFarland standard and diluted in PBS to a final concentration of […]. 10 μL of this solution (5 CFU) was injected into each worm and incubated for 3 h at 37° C. […] Worms treated with 10 μL PBS or high concentrations of test antibiotics served as negative and positive control, respectively. The worms were incubated at 37° C. in Petri dishes lined with filter paper and scored for survivability every 6 h for up to 48 h. This experiment was repeated to give a total of thirty worms (n=30) in each case. Survival data curves were plotted using Kaplan-Meier survival analysis.

PA 91433 = experiment: Checkerboard combination study / MIC; format: cell-based, Pseudomonas aeruginosa; settings: PA91433

COc1cccc2c1C(=O)c1c(O)c3c(c(O)c1C2=O)C[C@@](O)(C(=O)CO)C[C@@H]3O[C@H]1C[C@H](N)[C@H](O)[C@H](C)O1 [Doxorubicin]
cell viability [1]: less than 10%
cytotoxicity of cells reduced to [2]: less than 10%

NC[C@H]1O[C@H](O[C@H]2[C@H](O)[C@@H](O[C@H]3O[C@H](CO)[C@@H](O)[C@H](N)[C@H]3O)[C@H](N)C[C@@H]2N)[C@H](N)C[C@@H]1O [Tobramycin]
MIC (WT P. aeruginosa PAO1; Pseudomonas aeruginosa, PAO1, 18 h, antibiotic alone, WT PAO1 (Table 2), read-out: MIC alone): 1 µg/mL
FICI in the presence of ≤10 μM of 1 (WT P. aeruginosa PAO1): 1.01
MIC of Antibiotics in the presence of ≤10 μM of 1 (WT P. aeruginosa PAO1): 1 µg/mL
FICI in the presence of ≤10 μM of 2 (WT P. aeruginosa PAO1): 1.00
MIC of Antibiotics in the presence of ≤10 μM of 2 (WT P. aeruginosa PAO1): 1 µg/mL
FICI in the presence of ≤10 μM of 3 (WT P. aeruginosa PAO1): 1.01
MIC of Antibiotics in the presence of ≤10 μM of 3 (WT P. aeruginosa PAO1): 1 µg/mL
FICI with compounds 1-3 (WT P. aeruginosa PAO1): 1
FICI with aztreonam or meropenem (WT P. aeruginosa PAO1; tobramycin + aztreonam or meropenem, WT): 0.75-1.00
MIC [3]: 32 µg/mL (≈ 68.4 µM)
MIC (E. faecium ATCC 27270): 16 µg/mL (≈ 34.2 µM)
MIC [4]: 8 µg/mL (≈ 17.1 µM)
MIC (S. aureus ATCC 29213): 0.5 µg/mL (≈ 1.07 µM)
MIC (E. faecalis ATCC 29212): 8 µg/mL (≈ 17.1 µM)
MIC [5]: > 512 µg/mL
MIC (S. pneumoniae ATCC 49619): 2 µg/mL (≈ 4.28 µM)
MIC (MSSE CANWARD-2008 81388): ≤ 0.25 µg/mL
MIC (MRSA ATCC 33592): 0.5 µg/mL (≈ 1.07 µM)
MIC (E. coli ATCC 25922): 0.5 µg/mL (≈ 1.07 µM)
MIC [6]: 2 µg/mL (≈ 4.28 µM)
MIC [7]: 128 µg/mL (≈ 274 µM)
MIC [8]: 8 µg/mL (≈ 17.1 µM)
MIC [9]: 16 µg/mL (≈ 34.2 µM)
MIC (P. aeruginosa ATCC 27853): 1 µg/mL (≈ 2.14 µM)
MIC [10]: 256 µg/mL (≈ 548 µM)
MIC (K. pneumoniae ATCC 13883): ≤ 0.25 µg/mL
FICI with aztreonam or meropenem ([11]; tobramycin-resistant MDR/XDR isolates): 0.56-0.75
FICI with aztreonam or meropenem ([11]; tobramycin-susceptible MDR): 0.75
MIC [12]: ≤ 2 µg/mL

Colistin
FICI in the presence of ≤10 μM of 1 (WT P. aeruginosa PAO1): 2.00
MIC of Antibiotics in the presence of ≤10 μM of 1 (WT P. aeruginosa PAO1): 2 µg/mL
FICI in the presence of ≤10 μM of 2 (WT P. aeruginosa PAO1): 2.00
MIC of Antibiotics in the presence of ≤10 μM of 2 (WT P. aeruginosa PAO1): 2 µg/mL
FICI in the presence of ≤10 μM of 3 (WT P. aeruginosa PAO1): 1.02
MIC of Antibiotics in the presence of ≤10 μM of 3 (WT P. aeruginosa PAO1): 1 µg/mL
FICI with compounds 1-3 (WT P. aeruginosa PAO1): 2
MIC alone (WT P. aeruginosa PAO1; antibiotic alone, WT PAO1 (Table 2)): Colistin (1) μg/ml
MIC of colistin (PA 101243): 1024 µg/mL
survival of larvae [13]: 30%
MIC of colistin (PA 91433): 4 µg/mL
